For this assay, the target named is T1, SIRT1 (Homo sapiens, UniProt Q96EB6).
T1 sequence (Q96EB6 1-747): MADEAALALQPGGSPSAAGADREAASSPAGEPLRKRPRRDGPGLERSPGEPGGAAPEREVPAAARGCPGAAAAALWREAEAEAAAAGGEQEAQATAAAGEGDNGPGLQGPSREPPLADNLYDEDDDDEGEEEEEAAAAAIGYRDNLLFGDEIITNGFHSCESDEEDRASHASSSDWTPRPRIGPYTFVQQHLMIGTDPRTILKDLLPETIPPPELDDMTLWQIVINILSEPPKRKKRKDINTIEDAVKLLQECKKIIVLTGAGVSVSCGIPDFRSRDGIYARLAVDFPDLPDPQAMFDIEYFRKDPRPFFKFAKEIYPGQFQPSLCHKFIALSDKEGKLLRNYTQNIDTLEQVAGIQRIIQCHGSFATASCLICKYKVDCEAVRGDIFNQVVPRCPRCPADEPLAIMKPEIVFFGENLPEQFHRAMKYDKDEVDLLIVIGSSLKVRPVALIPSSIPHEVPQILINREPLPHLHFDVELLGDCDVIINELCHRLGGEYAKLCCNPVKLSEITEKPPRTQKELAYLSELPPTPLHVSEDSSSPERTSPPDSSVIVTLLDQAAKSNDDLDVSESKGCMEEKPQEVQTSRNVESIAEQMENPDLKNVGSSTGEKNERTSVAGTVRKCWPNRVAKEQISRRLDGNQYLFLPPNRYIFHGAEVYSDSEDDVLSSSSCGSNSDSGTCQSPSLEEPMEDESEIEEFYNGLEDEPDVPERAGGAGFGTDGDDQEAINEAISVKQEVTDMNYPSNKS
Kind of assay: Trp mass spectrometry assay (SIRT1 activation). Type of assay: biochemical. Conditions: for Emax: percent maximum fold activation of SIRT1, read-out: Tryp % Fold Act. A digest of the protocol:
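N-His-tagged SIRT1 (10 nM), expressed in E. coli, was incubated with 0.5 μM Ac-RHKK(Ac)W-NH2 peptide and 120 μM NAD+ for 25 min at 25 °C in HEPES pH 7.5 with […]. The reaction was stopped with formic acid and O-acetyl-ADP-ribose or deacetylated peptide was quantified by mass spectrometry. Results are given as EC1.5 and percent maximal activation relative to DMSO control.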

Setting [1] is: concentration of test compound that results in 150% activation of SIRT1, Trp peptide substrate.
The mark [2] stands for this setting: Trp mass spectrometry assay, EC1.5 = concentration giving 150% activation of SIRT1.

Read-outs that look alike come from different tables or passages of the source.

As for `O=C(Nc1cccc(C2CCNC2)c1)N1c2nc(-c3cccc(C(F)(F)F)c3)ccc2N2CC[C@H]1C2` (some centres unmarked) [Example 593], the “Tryp AVG EC1.5 (μM)” value under setting [1] is listed as “A (EC1.5<1 μM)”. The Emax (Trp peptide substrate) was at least 150%.
Turning to `NC(=O)CN1CCC(c2cccc(NC(=O)N3c4nc(-c5cccc(C(F)(F)F)c5)ccc4N4CC[C@H]3C4)c2)C1` (some centres unmarked) [Example 594], the “Tryp AVG EC1.5 (μM)” value under setting [1] is “A (EC1.5<1 μM)”. Besides, the Emax (Trp peptide substrate) is at least 150%.
For `O=C(Nc1cc(-c2cnco2)ccn1)N1c2nc(-c3cccc(C(F)(F)F)c3)ccc2N2CCC1CC2` [Example 595], in that order: “A (EC1.5<1 μM)” and at least 150%.
Take `O=C(Nc1cccc(-c2cnco2)n1)N1c2nc(-c3cccc(C(F)(F)F)c3)ccc2N2CCC1CC2` [Example 596]: the “Tryp AVG EC1.5 (μM)” value under setting [1] is “A (EC1.5<1 μM)”. The Emax (Trp peptide substrate) is at least 150%.
With `O=C(NCc1ccccc1)N1c2nc(-c3cccc(C(F)(F)F)c3)ccc2N2CC[C@H]1C2` [Example 597], the “Tryp AVG EC1.5 (μM)” value under setting [1] is given as “B (EC1.5 1-25 μM)”. Moreover, for the setting “Trp peptide substrate”, the Emax is at least 150%.
Regarding `O=C(NCCc1ccccc1)N1c2nc(-c3cccc(C(F)(F)F)c3)ccc2N2CC[C@H]1C2` [Example 598], the “Tryp AVG EC1.5 (μM)” value under setting [1] is “B (EC1.5 1-25 μM)”. Also, the Emax (Trp peptide substrate) is at least 150%.
For `O=C(NCCCc1ccccc1)N1c2nc(-c3cccc(C(F)(F)F)c3)ccc2N2CC[C@H]1C2` [Example 599], the “Tryp AVG EC1.5 (μM)” value under setting [1] is given as “B (EC1.5 1-25 μM)”. In addition, under “Trp peptide substrate”, the Emax was at least 150%.
Consider `O=C(NCCCCc1ccccc1)N1c2nc(-c3cccc(C(F)(F)F)c3)ccc2N2CC[C@H]1C2` [Example 600], for which, under setting [1], the “Tryp AVG EC1.5 (μM)” value is given as “B (EC1.5 1-25 μM)”. The Emax (Trp peptide substrate) was at least 150%.
Taken in the same sequence, the figures for `O=C(Nc1ccccn1)N1c2nc(-c3cccc(C(F)(F)F)c3)ccc2N2C[C@@H](O)[C@H]1C2` [Example 601] were “A (EC1.5<1 μM)” and at least 150%.
Taken in the same sequence, the figures for `CC(=O)O[C@@H]1CN2C[C@H]1N(C(=O)Nc1ccccn1)c1nc(-c3cccc(C(F)(F)F)c3)ccc12` [Example 602] were “B (EC1.5 1-25 μM)” and at least 150%.
Regarding `O=C(O[C@@H]1CN2C[C@H]1N(C(=O)Nc1ccccn1)c1nc(-c3cccc(C(F)(F)F)c3)ccc12)c1ccccc1` [Example 603], the “Tryp AVG EC1.5 (μM)” value under setting [1] is recorded as “C (EC1.5>25 μM)”. In addition, the Emax (Trp peptide substrate) is under 150%.
As to `CC(C)(C)OC(=O)NCCn1cc(-c2cccc(NC(=O)N3c4nc(-c5cccc(C(F)(F)F)c5)ccc4N4CCC[C@H]3C4)c2)nn1` [Example 604], under setting [1], the “Tryp AVG EC1.5 (μM)” value was “A (EC1.5<1 μM)”. Besides, the Emax (Trp peptide substrate) was at least 150%.
With `CC(C)(C)OC(=O)NCc1cn(-c2cccc(NC(=O)N3c4nc(-c5cccc(C(F)(F)F)c5)ccc4N4CC[C@H]3C4)c2)nn1` [Example 605], the “Tryp AVG EC1.5 (μM)” value under setting [1] is “A (EC1.5<1 μM)”. Further, the Emax (Trp peptide substrate) is at least 150%.
As for `NCc1cn(-c2cccc(NC(=O)N3c4nc(-c5cccc(C(F)(F)F)c5)ccc4N4CC[C@H]3C4)c2)nn1` [Example 606], the “Tryp AVG EC1.5 (μM)” value under setting [1] is “A (EC1.5<1 μM)”. Also, the Emax (Trp peptide substrate) is at least 150%.
Turning to `O=C(CCCC[C@@H]1SC[C@@H]2NC(=O)N[C@@H]21)NCCCCCC(=O)NCc1cn(-c2cccc(NC(=O)N3c4nc(-c5cccc(C(F)(F)F)c5)ccc4N4CC[C@H]3C4)c2)nn1` [Example 607], under setting [1], the “Tryp AVG EC1.5 (μM)” value is “A (EC1.5<1 μM)”.
As to `O=C1OC2(c3ccc(O)cc3Oc3cc(O)ccc32)c2ccc(NC(=S)NCc3cn(-c4cccc(NC(=O)N5c6nc(-c7cccc(C(F)(F)F)c7)ccc6N6CC[C@H]5C6)c4)nn3)cc21` [Example 608], the “Tryp AVG EC1.5 (μM)” value under setting [1] is “C (EC1.5>25 μM)”. Where the note is “Trp peptide substrate”, the Emax was under 150%.
Take `CC(C)(C)OC(=O)N1CCc2ccc(NC(=O)N3c4nc(-c5cccc(C(F)(F)F)c5)ccc4N4CC[C@H]3C4)cc2C1` [Example 609]: the “Tryp AVG EC1.5 (μM)” value under setting [1] was “B (EC1.5 1-25 μM)”. Further, the Emax (Trp peptide substrate) was at least 150%.
Take `CC(C)(C)OC(=O)N1CCCc2ccc(NC(=O)N3c4nc(-c5cccc(C(F)(F)F)c5)ccc4N4CC[C@H]3C4)cc21` [Example 610]: the “Tryp AVG EC1.5 (μM)” value under setting [1] is “B (EC1.5 1-25 μM)”. Also, the Emax (Trp peptide substrate) was at least 150%.
Regarding `CC(C)(C)OC(=O)N1CCc2cc(NC(=O)N3c4nc(-c5cccc(C(F)(F)F)c5)ccc4N4CC[C@H]3C4)ccc2C1` [Example 611], the “Tryp AVG EC1.5 (μM)” value under setting [1] is reported as “A (EC1.5<1 μM)”. Moreover, the Emax (Trp peptide substrate) is at least 150%.
Consider `O=C(NCCCN1CCOCC1)N1c2nc(-c3cccc(C(F)(F)F)c3)ccc2N2CC[C@H]1C2` [Example 612], for which the “Tryp AVG EC1.5 (μM)” value under setting [1] was “B (EC1.5 1-25 μM)”. Further, the Emax (Trp peptide substrate) is at least 150%.
Taken in the same sequence, the figures for `O=C(NCCc1ccncc1)N1c2nc(-c3cccc(C(F)(F)F)c3)ccc2N2CC[C@H]1C2` [Example 613] were “B (EC1.5 1-25 μM)” and at least 150%.
For `O=C(NCCc1ccccn1)N1c2nc(-c3cccc(C(F)(F)F)c3)ccc2N2CC[C@H]1C2` [Example 614], in that order: “B (EC1.5 1-25 μM)” and at least 150%.
In the case of `O=C(NCCc1cccnc1)N1c2nc(-c3cccc(C(F)(F)F)c3)ccc2N2CC[C@H]1C2` [Example 615], the “Tryp AVG EC1.5 (μM)” value under setting [1] is on record as “B (EC1.5 1-25 μM)”. Also, the Emax (Trp peptide substrate) is at least 150%.
For the compound `O=C(NCCN1CCOCC1)N1c2nc(-c3cccc(C(F)(F)F)c3)ccc2N2CC[C@H]1C2` [Example 616], the “Tryp AVG EC1.5 (μM)” value under setting [1] is recorded as “B (EC1.5 1-25 μM)”. In addition, the Emax (Trp peptide substrate) was at least 150%.
Regarding `O=C(Nc1cccc(C(F)(F)F)c1)N1c2nc(-c3cccc(C(F)(F)F)c3)ccc2N2CC[C@H]1C2` [Example 617], under setting [1], the “Tryp AVG EC1.5 (μM)” value is “A (EC1.5<1 μM)”. For the same compound, the Emax (Trp peptide substrate) was at least 150%.
For `O=C(Nc1cccc(-c2ccc(C(F)(F)F)cn2)c1)N1c2nc(-c3cccc(C(F)(F)F)c3)ccc2N2CC[C@H]1C2` [Example 618], in that order: “B (EC1.5 1-25 μM)” and at least 150%.
For `Cc1ccc(-c2cccc(NC(=O)N3c4nc(-c5cccc(C(F)(F)F)c5)ccc4N4CC[C@H]3C4)c2)cc1C` [Example 619], the “Tryp AVG EC1.5 (μM)” value under setting [1] is reported as “C (EC1.5>25 μM)”. The Emax (Trp peptide substrate) was under 150%.
Turning to `O=C1CN2C[C@H]1N(C(=O)Nc1ccccn1)c1nc(-c3cccc(C(F)(F)F)c3)ccc12` [Example 620], the “Tryp AVG EC1.5 (μM)” value under setting [1] is given as “B (EC1.5 1-25 μM)”. Moreover, where the note is “Trp peptide substrate”, the Emax was at least 150%.
As to `Cn1nccc1-c1cccc(NC(=O)N2c3nc(-c4cccc(C(F)(F)F)c4)ccc3N3CC[C@H]2C3)n1` [Example 623], under setting [1], the “Tryp AVG EC1.5 (μM)” value is listed as “A (EC1.5<1 μM)”. Besides, under “Trp peptide substrate”, the Emax is at least 150%.
As for `O=C(Nc1ccc2c(c1)CCC2)N1c2nc(-c3cccc(C(F)(F)F)c3)ccc2N2CC[C@H]1C2` [Example 624], the “Tryp AVG EC1.5 (μM)” value under setting [1] is given as “B (EC1.5 1-25 μM)”. Also, under “Trp peptide substrate”, the Emax is at least 150%.
Take `O=C(Nc1cccc(-c2ccccc2)c1)N1c2nc(-c3cccc(C(F)(F)F)c3)ccc2N2CC[C@H]1C2` [Example 625]: the “Tryp AVG EC1.5 (μM)” value under setting [2] is recorded as “A (EC1.5<1 μM)”. For the same compound, the Emax (Trp mass spectrometry assay) was at least 150%.
Regarding `COC(=O)c1cccc(NC(=O)N2c3nc(-c4cccc(C(F)(F)F)c4)ccc3N3CC[C@H]2C3)c1` [Example 626], the “Tryp AVG EC1.5 (μM)” value under setting [2] is reported as “A (EC1.5<1 μM)”. Besides, the Emax (Trp mass spectrometry assay) is at least 150%.
As for `O=C(NCCCn1ccnc1)N1c2nc(-c3cccc(C(F)(F)F)c3)ccc2N2CC[C@H]1C2` [Example 627], the “Tryp AVG EC1.5 (μM)” value under setting [2] was “B (EC1.5 1-25 μM)”. For the same compound, the Emax (Trp mass spectrometry assay) was at least 150%.

Values taken from US9765075B2, “Substituted bridged urea analogs as sirtuin modulators” (GLAXOSMITHKLINE LLC, priority 2013, dated 2017).
